In patent publication US12686699B2, “Crystalline forms of squalamine” (priority 2020, dated 2026):
Entries after “also recorded” stand apart in the source; their conditions may differ. Read-outs that look alike come from different tables or passages of the source.

Key:
Format in all cases: physicochemical
[1] = Intrinsic dissolution rate determination in FaSSGF; conditions: for IDR: FaSSGF pH 1.6, 37° C., interval 3-30 min (Form A1), 10-45 min (Form C); for API concentration in solution: FaSSGF, 37° C.
Protocol: The intrinsic dissolution rate of Forms A1 and C was determined in FaSSGF. […] The pressure applied was approximately 40 bar for 2 minutes. The two tablets were placed in 30 mL vials and afterwards the FaSSGF solution pre-warmed at 37° C. […] After FaSSGF addition, stirring was started. The medium (20 mL) was added to vessels containing tablets of Forms A1 and C. The tablets were kept at 37° C. under continuous stirring. […] In the plot shown in FIG. 14, the % concentration of the API in solution is plotted against the time. The dissolution rate (Table 16) was calculated in the interval between 3 and 30 minutes for the experiment started with Form A1, and in the range 10-45 minutes for the experiment started with Form C.

[2] = Solubility in biorelevant media (shake-flask)
Protocol: The experiments were performed in triplicate. Approximately 30 mg of API were weighed in the 8 mL glass vials and an aliquot of media was added (see Table 14 for details). […] Upon completion of the equilibration time, the solids were separated from the liquid phases by centrifugation. The mother liquors were filtered using […] PTFE filters and injected at the HPLC to determine the API concentration in solution. The pH was recorded after 3 hours (1 hour for FaSSGF). The recovered ambient-dried solids were analyzed by HT-XRPD.

[3] = Physical stability test of solid forms
Protocol: Solid samples of Forms A1, B1 and C were incubated at three different conditions to test their physical stability: 80° C., closed vial, 24 hours; 60° C./29% RH, open vial, 48 hours; and 40° C./75% RH, open vial, 48 hours. The solids recovered after the stability studies were analyzed by HR-XRPD, TGMS and DSC.

[4] = Variable Humidity XRPD (VH-XRPD); conditions: 30° C., RH profile 40→87→0→60% (Form A1), 40→85→0→60% (Form C)
Protocol: The powder data were collected on D8 Advance diffractometer using Cu Kα1 radiation (1.54056 Å) with germanium monochromator at 30° C. using the SYCOS H-HOT hot humid chamber produced by Ansyco GmbH. The data were collected in the Bragg-Brentano geometry (locked coupled) from 8 to 35° 2θ on the flat sample holder (without rotation) on solid state LynxEye detector with 0.018° per step with 1 sec/step scan speed. After reaching demanded humidity the sample was relaxed for 5 minutes before measurement. The sample was optionally measured with 2 seconds per step and in the last measurement at RH 0% the relaxation time was elongated to 30 min.
Variable Humidity XRPD (VH-XRPD) measurements were performed on Forms A1 and C to investigate the in-situ phase changes induced by exposure to variable RH levels. Diffractograms of Form A1 were collected at 30° C. with a RH profile of 40→87→0→60% (FIG. 2). Initially, the pattern of Form A1 was distinguished at 40% RH. By increasing the RH level up to 87%, no changes in the XRPD pattern were detected. Furthermore, no changes were observed by lowering the RH from 87% down to 20%.

[5] = Dynamic Vapor Sorption (DVS) measurement; conditions: for hygroscopic behavior: 40 to 95% RH
[6] = Exposure to accelerated aging conditions (AAC); conditions: 40° C./75% RH for 2 days
From the text: The polymorphic behavior of squalamine phosphate (ENT-01) and the physico-chemical properties of two hydrated phases were investigated. A squalamine tetrahydrate, designated Form A1, was identified. The squalamine polymorphism assessment and hydrate screen allowed identification of several squalamine crystalline phases. Among these phases, four squalamine hydrates (Forms B1, B2, C, D) and three mixed squalamine hydrates/solvates (Forms A2, E, F) were identified. All phases converted to squalamine Form A1 upon exposure to accelerated aging conditions (ACC) (2 days at 40° C./75% RH).
In the vacuum-dried solids, a novel pattern very similar to Form A1 but with shifted peaks was identified. This phase was designated Form A2 (see Table 2) and characterized by HT-XRPD. […] Form A2 was identified in several vacuum-dried solids recovered from the hydrate screen experiments.

[7] = FaSSGF (pH 1.6), 37° C., 1 hour
[8] = FaSSIF (pH 6.5), 37° C., 3 hours
[9] = after 40° C./75% RH, open vial, 48 h (TGMS)
[10] = after 60° C./29% RH, open vial, 48 h (TGMS)
[11] = after 80° C., closed vial, 24 h (TGMS)
[12] = desorption, between 5 and 0% RH
[13] = desorption, between 25 and 5% RH
[14] = first sorption cycle, between 45 and 95% RH
[15] = last sorption cycle, between 25 and 45% RH

| Compound | IDR [1] [mg/min/cm^2] | API concentration in solution ([1]; after 45 minutes) | API concentration in solution ([1]; after 60 minutes) | SOLUBILITY [2, 7] | SOLUBILITY [2, 8] | Solid Phase Composition ([3]; 40° C./75% RH, open vial, 48 h) | Solid Phase Composition ([3]; 60° C./29% RH, open vial, 48 h) | Solid Phase Composition ([3]; 80° C., closed vial, 24 h) | Mass loss [3, 9] [%] | Mass loss [3, 10] [%] | Mass loss [3, 11] [%] | physical stability under variable RH levels [4] | hygroscopic behavior [5] | change in mass [5, 12] [%] | change in mass [5, 13] [%] | change in mass (water vapor uptake) [5, 14] [%] | change in mass ([5]; last sorption cycle, 0-25% RH) [%] | change in mass (water vapor uptake) [5, 15] [%] | other results |
| --- | --- | --- | --- | --- | --- | --- | --- | --- | --- | --- | --- | --- | --- | --- | --- | --- | --- | --- | --- |
| CC(C)[C@@H](CC[C@@H](C)[C@H]1CC[C@H]2[C@@H]3[C@H](O)C[C@H]4C[C@@H](NCCCNCCCCN)CC[C@]4(C)[C@H]3CC[C@]12C)OS(=O)(=O)O.O=P(O)(O)O [Form A1, squalamine phosphate] | 0.049 | ~20% | above 30% | ~ 9 mg/mL | practically insoluble | physically stable | physically stable | physically stable | 9.2 | 8.5 | 9.1 | stable in the range 40→87→20% RH; also recorded: started to release water at RH levels below 20% | slightly hygroscopic | 5.3 | 1.7 | 2.1 | 7 | 0.6 | SOLUBILITY ([2]; 37 °C, pH 1.6, fassgf or other biorelevant, thermodynamic from solid, FaSSGF (pH 1.6), 1 hour, read-out: SOLUBILITY): 9 mg/mL; SOLUBILITY ([2]; 37 °C, pH 5.1, fessif, thermodynamic from solid, FeSSIF (initial medium pH 5.1), 3 hours, read-out: SOLUBILITY): ~1 mg/mL; SOLUBILITY ([2]; 37 °C, pH 6.5, fassif, thermodynamic from solid, FaSSIF (pH 6.5), 3 hours, read-out: SOLUBILITY): < 0.1 mg/mL; SOLUBILITY ([2]; FaSSGF (pH 1.6), 37° C., 1 hour, listed as A1): 8.9 mg/mL; SOLUBILITY ([2]; FeSSIF (initial medium pH 5.1), 37° C., 3 hours, listed as Al): 0.8 mg/mL; change in mass (water absorbed) ([5]; between 35 to 65% RH): 0.7%; change in mass ([5]; desorption, 95-55% RH): 0.9%; change in mass ([5]; desorption, between 45 and 25% RH): 0.6%; change in mass ([5]; desorption, between 55 and 45% RH): 1% |
| CC(C)[C@@H](CC[C@@H](C)[C@H]1CC[C@H]2[C@@H]3[C@H](O)C[C@H]4C[C@@H](NCCCNCCCCN)CC[C@]4(C)[C@H]3CC[C@]12C)OS(=O)(=O)O.O=P(O)(O)O [Form B1, squalamine phosphate] | – | – | – | – | – | converted to Form A1 | converted to Form A1; also recorded: converting to squalamine Form A1 | physically stable | 8.9 | 9.0 | 1.8 | – | – | – | – | – | – | – | – |
| CC(C)[C@@H](CC[C@@H](C)[C@H]1CC[C@H]2[C@@H]3[C@H](O)C[C@H]4C[C@@H](NCCCNCCCCN)CC[C@]4(C)[C@H]3CC[C@]12C)OS(=O)(=O)O.O=P(O)(O)O [Form C, squalamine phosphate] | 0.014 | below 10% | above 20% | 16.9 mg/mL | practically insoluble | physically stable | converted to Form A1 | converted to Form A1 | 12.6 | 8.7 | 8.8 | physically stable in the range 40→85→40% RH | slightly hygroscopic | 6 | 7.3 | 3.1 | 8.1 | 1.4 | SOLUBILITY ([2]; FaSSIF (pH 6.5), 37° C., 3 hours, listed as C): <0.1 mg/mL; SOLUBILITY ([2]; FeSSIF (initial medium pH 5.1), 37° C., 3 hours): ~1 mg/mL; SOLUBILITY ([2]; FeSSIF (initial medium pH 5.1), 37° C., 3 hours, listed as C): 0.9 mg/mL |
| CC(C)[C@@H](CC[C@@H](C)[C@H]1CCC2C3C(CC[C@@]21C)[C@@]1(C)CC[C@H](NCCCNCCCCN)C[C@@H]1C[C@H]3O)OS(=O)(=O)O.O=P(O)(O)O (stereo partly shown) [Form D, squalamine phosphate] | – | – | – | – | – | – | – | – | – | – | – | – | – | – | – | – | – | – | physical stability upon exposure to AAC [6]: physically unstable |
